This is an account of results in publication PMC8557901 (Microbiology Spectrum, 2021).

The test system of experiment [1] is P. falciparum F32-ART5 and F32-TEM. As to the kind of experiment: Recrudescence assay F32-ART5 versus F32-TEM. Format: cell-based, Plasmodium falciparum. As to conditions: 48 h drug exposure; M1 2.5 and 10 μM; artemisinin 18 μM. The method, then:
(§1) The Plasmodium falciparum artemisinin-resistant strain F32-ART5 and its twin artemisinin-sensitive line F32-TEM ([30], [31]) were cultivated at 37°C with 5% CO2 in human red blood cells (EFS [French Blood Bank]) diluted to 2% hematocrit in RPMI 1640 medium supplemented with 5% human serum (EFS) as previously reported ([47]).
A recrudescence assay was performed to evaluate the ability of the F32-ART5 parasite line to survive drug exposure in comparison to that of the F32-TEM parasite line ([30], [31]) in order to evaluate the risk of cross-resistance between artemisinin and M1. D-Sorbitol-synchronized ring-stage parasites at 3% parasitemia (2% hematocrit) were exposed to the drug for 48 h. After drug exposure, parasite cultures were washed with RPMI 1640 medium and replaced in normal drug-free culture conditions. The time to parasite recrudescence was determined as the time required to reach initial parasitemia. […] Each experiment, performed in parallel for F32-ART5 and F32-TEM cultivated under the same conditions to generate paired results, was carried out at least three times independently and data statistically analyzed.
A statistical analysis (log-rank test) was carried out on data from the recrudescence assay and the QSA using a Kaplan-Meier survival analysis considering censored data. The final event was defined as the time necessary for cultures to reach initial parasitemia. […]

Experiment [2] has as its system P. falciparum F32-ART5 (artemisinin-resistant). As to the kind of experiment: Standard in vitro chemosensitivity assay (hypoxanthine uptake), F32-ART5. Format: cell-based. As to conditions: Plasmodium falciparum, F32, 48 h, read-out: Mean EC50 ± SD. The method, then: as §1
(§2) In vitro susceptibility of P. falciparum parasites was determined by using the standard hypoxanthine uptake inhibition assay as described previously ([51]) with some modifications ([52]). After D-sorbitol treatment, parasites synchronized at the ring stage were exposed for 48 h, with [^3H]hypoxanthine (Perkin Elmer, France), to a range of concentrations of the different tested compounds. […] Each result represents 3 independent experiments.

Experiment [3] has as its system P. falciparum F32-TEM (artemisinin-sensitive). As to the kind of experiment: Standard in vitro chemosensitivity assay (hypoxanthine uptake), F32-TEM. As to conditions: Plasmodium falciparum, F32, 48 h, read-out: Mean EC50 ± SD. Type of experiment: cell-based. Here is the method: as §1, §2
For experiment [4], the system named is P. falciparum F32-ART5 quiescent parasites. The experiment in a line: Quiescent-stage survival assay (QSA). Format: cell-based, Plasmodium falciparum. As to conditions: artemisinin 3 μM 6 h then artemisinin + CQ 200 nM versus artemisinin alone. The method, then: as §1
Chemosensitivity evaluation of artemisinin-resistant parasites at the quiescent stage was performed on the F32-ART5 strain using the quiescent-stage survival assay (QSA) ([33]). D-Sorbitol-synchronized ring-stage parasites at 3% parasitemia (2% hematocrit) were first exposed to 3 μM artemisinin for 6 h to induce quiescence of artemisinin-resistant parasites. Then, quiescent parasites were exposed or not (as a control condition) to 2.5 μM M1 for 24 h. After drug exposure, parasite cultures were washed with RPMI 1640 medium and replaced in normal drug-free culture conditions. The time to parasite recrudescence was determined as the time required to reach initial parasitemia. […] In each experiment, results obtained with the condition “artemisinin 3 μM 6 h/artemisinin 3 μM 24 h” were compared to those obtained with the condition “artemisinin 3 μM 6 h/(artemisinin 3 μM + M1 2.5 μM) 24 h” in order to determine the delay in recrudescence time. […] Each experiment was carried out three times independently, and data statistically analyzed. […]

In a further experiment the test system is Plasmodium berghei. Further details: method as in PMID 25791675. Conditions: 2.5 mg/kg twice a day for 3 days; untreated group 9%; cited from earlier work.
Experiment [5] has as its system P. falciparum strain K1 in RBC. The experiment in a line: In vitro chemosensitivity assay, blood stage P. falciparum K1 (SYBR green I). Type of experiment: cell-based. As to conditions: Plasmodium falciparum, K1, 72 h, read-out: EC50 (μM) for P. falciparum strain K1 in RBC. The method, then: Maintenance in continuous culture was done as described previously by Trager and Jensen ([46]). Cultures were maintained in fresh A+ human erythrocytes (EFS [French Blood Bank]) at 2.5% hematocrit in complete medium (RPMI 1640 with 25 mM HEPES, 25 mM NaHCO3, 10% A+ human serum) at 37°C under a reduced-O2 atmosphere (gas mixture of 10% O2, 5% CO2, and 85% N2). Parasitemia was maintained daily between 1% and 3%. The P. falciparum drug susceptibility test was carried out by comparing quantities of DNA in treated and control cultures of parasites in human erythrocytes according to a SYBR green I fluorescence-based method ([50]) using a 96-well fluorescence plate reader. Compounds, previously dissolved in DMSO (final concentration, less than 0.5% vol/vol), were incubated in a total assay volume of 200 μl of synchronized culture suspension (2% hematocrit and 0.4% parasitemia) for 72 h in a humidified atmosphere (85% N2, 10% O2, and 5% CO2) at 37°C in 96-well flat-bottom plates. Duplicate assays were performed for each sample. After incubation, plates were frozen at −20°C for 24 h. Then, the frozen plates were thawed for 1 h at 37°C. Fifteen microliters of each sample was transferred to 96-well flat-bottom black plates (Greiner Bio-one) already containing 15 μl of the SYBR green I lysis buffer (2× SYBR green I, 20 mM Tris base, pH 7.5, 20 mM EDTA, 0.008% [wt/vol] saponin, 0.08% [wt/vol] Triton X-100). […] Plates were incubated for 15 min at 37°C and then read on a Tecan Infinite F-200 spectrophotometer with excitation and emission wavelengths at 485 and 535 nm, respectively. […] EC50K1 values represent the mean values calculated from three independent experiments.

Broadly, the EC50 is the concentration needed to bring the measured effect to its halfway point.

Take `C[C@@H]1CC[C@H]2[C@@H](C)C(=O)O[C@@H]3O[C@@]4(C)CC[C@@H]1[C@]32OO4` [Artemisinin, reference compound]: in experiment [1], the “recrudescence of F32-ART5 versus F32-TEM (cross-resistance with artemisinin)” value is reported as “faster recrudescence for F32-ART5 than for F32-TEM”. For the same compound, the values for the EC50 in experiment [2] and in experiment [3] were 11 ± 0.5 nM and 11.1 ± 1.6 nM, respectively.
Take `CCN(CC)CCCC(C)Nc1ccnc2cc(Cl)ccc12` (stereo not drawn) [Chloroquine, reference compound]: in experiment [4], the “difference in recrudescence times versus artemisinin alone” value was “no difference in the recrudescence times”. For the same compound, the “parasitemia at day 4” value in the experiment on Plasmodium berghei is recorded as 1.5%. Also, in experiment [5], the EC50 was 0.8 µM.
